Results from US20070116745A1, “Spermicidal preparations and uses thereof” (CONVE LTD., priority 2004, published 2007).

Legend:
sperm = test: Modified Sander-Cramer assay (complete sperm immobilization); assay type: cell-based; conditions: solvent 0.9% NaCl pH 5, 30-second coincubation, n=6
Description: The above formulations were used in a series of (i) Sander-Cramer assays (assessment of complete sperm immobilization during a 30-second, compound-sperm coincubation); and (ii) cervical mucous (CM) penetration assays (compound is pre-incubated with a CM microcolumn for 30 minutes, after which sperm are introduced into the system; sperm migration through the mucous is compared to that of control).

[1] = Solubility in assay solvent (Table 1); assay type: physicochemical; conditions: in 0.9% NaCl pH 5 at initial conc

With nonoxynol-9 the “HIGHEST SPERMICIDAL DILUTION (1/X)” value (sperm; initial conc 1 mg/ml) was 8.0 ± 0.0 1/X, the “M.E.C. (Minimum Effective Concentration)” value (sperm) was 0.125 ± 0.000 mg/mL and the SOLUBILITY [1] was “OK - clear”.
